Like-named read-outs stand apart in the source and are kept apart here.
How the values were obtained:
μ-opioid receptor [1] = molecular target: T1, μ-opioid receptor (Homo sapiens (Human), UniProt P35372); test: μ-opioid receptor [35S]GTPγS functional assay (HEK-293 cells); type: biochemical; settings: for Emax: HEK-293 cells, relative to DAMGO
Description: (§1) [^35S]GTPγS functional assays were conducted using freshly thawed μ-receptor membranes prepared in-house from a cell line expressing recombinant μ opioid receptor in a HEK-293, CHO or U-2 OS cell background, or purchased from a commercial source (Perkin Elmer, Shelton, Conn.; or DiscovRx, Fremont, Calif.). Assay reactions were prepared by sequentially adding the following reagents to binding buffer (100 mM NaCl, 10 mM MgCl2, 20 mM HEPES, pH 7.4) on ice (final concentrations indicated): membrane protein (0.026 mg/mL), saponin ([…]), GDP ([…]) and [^35S]GTPγS (0.20 nM; Perkin Elmer, Shelton, Conn.). The prepared membrane solution (190 μl/well) was transferred to 96-shallow well polypropylene plates containing 10 μl of 20× concentrated stock solutions of the agonist [D-Ala^2, N-methyl-Phe^4 Gly-ol^5]-enkephalin (DAMGO) prepared in dimethyl sulfoxide (DMSO). Plates were incubated for 30 min at about 25° C. with shaking. Reactions were terminated by rapid filtration onto 96-well Unifilter GF/B filter plates (Perkin Elmer, Shelton, Conn.) using a 96-well tissue harvester (Perkin Elmer, Shelton, Conn.) followed by three filtration washes with 200 μl of ice-cold wash buffer (10 mM NaH2PO4, 10 mM Na2HPO4, pH 7.4). Filter plates were subsequently dried at 50° C. for 2-3 hours. BetaScint scintillation cocktail (Perkin Elmer, Shelton, Conn.) was added (50 μl/well) and plates were counted using a Packard Top-Count for 1 min/well. Data were analyzed using the sigmoidal dose-response curve fitting functions in GraphPad PRISM v. 3.0, or an in-house function for non-linear, sigmoidal dose-response curve-fitting. [^35S]GTPγS functional assays can also be conducted using freshly thawed μ-receptor membranes prepared from a cell line expressing recombinant μ opioid receptor in a CHO-K1 cell background.
(§2) μ GTP EC50 is the concentration of a compound providing 50% of the maximal response for the compound at a μ-opioid receptor.
(§3) μ GTP Emax (%) is the maximal effect elicited by a compound relative to the effect elicited by DAMGO, a standard μ agonist.
In TABLE 4, activity response of certain Compounds of the Invention to the μ- and κ-opioid receptors was determined as described above for functional assays using HEK-293 cells.

μ-opioid receptor [2] = molecular target: T1, μ-opioid receptor; test: μ-opioid receptor functional assay (U-2 OS cells); type: biochemical; settings: for Emax: U-2 OS cells, relative to DAMGO
Description: as §1, §2, §3

κ-opioid receptor = κ-opioid receptor (Homo sapiens (Human), UniProt P41145); test: κ-opioid receptor functional assay (U-2 OS cells); type: biochemical; settings: for Emax: U-2 OS cells, relative to U69,593
Description: Functional [^35S]GTPγS binding assays were conducted as follows. κ opioid receptor membrane solution was prepared by sequentially adding final concentrations of 0.026 μg/μl κ membrane protein (in-house), 10 μg/mL saponin, 3 μM GDP and 0.20 nM [^35S]GTPγS to binding buffer (100 mM NaCl, 10 mM MgCl2, 20 mM HEPES, pH 7.4) on ice. The prepared membrane solution (190 μl/well) was transferred to 96-shallow well polypropylene plates containing 10 μl of 20× concentrated stock solutions of agonist prepared in DMSO. Plates were incubated for 30 min at a temperature of about 25° C. with shaking. Reactions were terminated by rapid filtration onto 96-well Unifilter GF/B filter plates (Perkin Elmer, Shelton, Conn.) using a 96-well tissue harvester (Packard) and followed by three filtration washes with 200 μl ice-cold binding buffer (10 mM NaH2PO4, 10 mM Na2HPO4, pH 7.4). Filter plates were subsequently dried at 50° C. for 2-3 hours. Fifty μl/well scintillation cocktail (Perkin Elmer, Shelton, Conn.) was added and plates were counted in a Packard Top-Count for 1 min/well.
κ GTP EC50 is the concentration of a compound providing 50% of the maximal response for the compound at a κ receptor.
κ GTP Emax (%) is the maximal effect elicited by a compound relative to the effect elicited by U69,593.
The following TABLE 5 provides results on the activity response of certain Compounds of the Invention at the μ- and κ-opioid receptors determined as described above using U-2 OS cells.

μ-opioid receptor [3] = molecular target: T1, μ-opioid receptor; test: μ-opioid receptor radioligand dose-displacement binding assay (HEK-293 cells); settings: bound given in μM
Description: Radioligand dose-displacement binding assays for μ-opioid receptors used 0.3 nM [^3H]-diprenorphine (Perkin Elmer, Shelton, Conn.), with […] membrane protein/well in a final volume of 500 μl binding buffer (10 mM MgCl2, 1 mM EDTA, 5% DMSO, 50 mM HEPES, pH 7.4). Reactions were carried out in the absence or presence of increasing concentrations of unlabeled naloxone. All reactions were conducted in 96-deep well polypropylene plates for 2 hours at room temperature. Binding reactions were terminated by rapid filtration onto 96-well Unifilter GF/C filter plates (Perkin Elmer, Shelton, Conn.), presoaked in 0.5% polyethylenimine using a 96-well tissue harvester (Perkin Elmer, Shelton, Conn.) followed by performing three filtration washes with 500 μl of ice-cold binding buffer. Filter plates were subsequently dried at 50° C. for 2-3 hours. BetaScint scintillation cocktail (Perkin Elmer, Shelton, Conn.) was added (50 μl/well), and plates were counted using a Packard Top-Count for 1 min/well. The data were analyzed using the one-site competition curve fitting functions in GraphPad PRISM™ v. 3.0 or higher (San Diego, Calif.), or an in-house function for one-site competition curve-fitting.
(§4) In TABLE 3, binding affinity of certain Compounds of the Invention to the μ- and κ-opioid receptors was determined as described above using HEK-293 cells.

[4] = molecular target: recombinant human kappa opioid receptor (κ) (Homo sapiens (Human), UniProt P41145); test: κ-opioid receptor radioligand dose-displacement binding assay (HEK-293 cells)
Description: Membranes from HEK-293 cells, CHO cells or U-2 OS cells expressing the recombinant human kappa opioid receptor (κ) were prepared by lysing cells in ice cold hypotonic buffer (2.5 mM MgCl2, 50 mM HEPES, pH 7.4) (10 mL/10 cm dish) followed by homogenization with a tissue grinder/Teflon pestle. Membranes from a cell line naturally expressing kappa opioid receptor can also be used. Membranes were collected by centrifugation at 30,000×g for 15 min at 4° C. and pellets were resuspended in hypotonic buffer to a final concentration of 1-3 mg/mL. Protein concentrations were determined using the BioRad protein assay reagent with bovine serum albumen as standard. Aliquots of κ receptor membranes were stored at −80° C.
Radioligand dose displacement assays used 0.4 nM [^3H]-U69,593 (GE Healthcare, Piscataway, N.J.; 40 Ci/mmole) with 15 μg membrane protein (recombinant κ opioid receptor expressed in HEK 293 cells; in-house prep) in a final volume of 200 μl binding buffer (5% DMSO, 50 mM Trizma base, pH 7.4). Non-specific binding was determined in the presence of 10 μM unlabeled naloxone or U69,593. All reactions were performed in 96-well polypropylene plates for 1 hour at a temperature of about 25° C. Binding reactions were terminated by rapid filtration onto 96-well Unifilter GF/C filter plates (Perkin Elmer, Shelton, Conn.) presoaked in 0.5% polyethylenimine (Sigma). Harvesting was performed using a 96-well tissue harvester (Perkin Elmer, Shelton, Conn.) followed by five filtration washes with 200 μl ice-cold binding buffer. Filter plates were subsequently dried at 50° C. for 1-2 hours. Fifty μl/well scintillation cocktail (Perkin Elmer, Shelton, Conn.) was added and plates were counted in a Packard Top-Count for 1 min/well.
as §4

| Structure (SMILES) | EC50 (μ-opioid receptor [1]) [nM] | Emax (μ-opioid receptor [1]) [%] | EC50 (μ-opioid receptor [2]) [nM] | Emax (μ-opioid receptor [2]) [%] | EC50 (κ-opioid receptor) [nM] | Emax (κ-opioid receptor) [%] | Ki (μ-opioid receptor [3]) [µM] | Ki [4] [µM] | Ki ([4]; bound given in μM) [µM] |
| --- | --- | --- | --- | --- | --- | --- | --- | --- | --- |
| COc1ccc2c(c1)[C@]13CCN(CC4CC4)[C@H](C2)[C@]12CC[C@@](N1CCOCC1)(CO2)C3 [Compound 31, (4bR,6S,8aS,9R)-11-(cyclopropylmethyl)-3-methoxy-6-morpholino-5,6,7,8,9,10-hexahydro-9,4b-(epiminoethano)-8a,6-(epoxymethano)phenanthrene] | 887 ± 278 | 9 ± 1.15 | 147 ± 7.61 | 38.7 ± 2.96 | 30 ± 7.2 | 103.7 ± 0.33 |  |  |  |
| COc1ccc2c(c1)[C@]13CCN(CC4CC4)[C@H](C2)[C@]12CC[C@@](N1CCCC1)(CO2)C3 [Compound 32, (4bR,6S,8aS,9R)-11-(cyclopropylmethyl)-3-methoxy-6-(pyrrolidin-1-yl)-5,6,7,8,9,10-hexahydro-9,4b-(epiminoethano)-8a,6-(epoxymethano)phenanthrene] | 1380 ± 234 | 20.7 ± 0.33 | 255 ± 26.6 | 69 ± 2.89 | 26.6 ± 5.92 | 104 ± 3.61 |  |  |  |
| COc1ccc2c(c1)[C@]13CCN(CC4CC4)[C@H](C2=O)[C@]12CC[C@](O)(C3)C(=O)O2 [Compound 33, (4bR,6S,8aS,9S)-11-(cyclopropylmethyl)-6-hydroxy-3-methoxy-5,6,7,8-tetrahydro-9,4b-(epiminoethano)-8a,6-(epoxymethano)phenanthrene-10,15(9H)-dione] |  |  |  |  |  |  | > 20 | 3.35 ± 0.325 |  |
| COc1ccc2c(c1)[C@]13CCN(CC4CC4)[C@H]([C@@H]2O)[C@]12CC[C@](O)(C3)C(=O)O2 [Compound 34, (4bR,6S,8aS,9R,10R)-11-(cyclopropylmethyl)-6,10-dihydroxy-3-methoxy-5,6,7,8,9,10-hexahydro-9,4b-(epiminoethano)-8a,6-(epoxymethano)phenanthren-15-one] |  |  |  |  |  |  | > 20 |  | > 20 |
| CN1CC[C@]23C[C@@]4(N)CC[C@@]2(OC4)[C@H]1Cc1ccc(O)cc13 [Compound 35, (4bR,6S,8aS,9R)-6-amino-11-methyl-5,6,7,8,9,10-hexahydro-9,4b-(epiminoethano)-8a,6-(epoxymethano)phenanthren-3-ol] | 291 ± 23.2 | 50.3 ± 2.33 |  |  |  |  |  |  |  |
| CN[C@]12CC[C@@]3(OC1)[C@H]1Cc4ccc(O)cc4[C@@]3(CCN1CC1CC1)C2 [Compound 37, (4bR,6S,8aS,9R)-11-(cyclopropylmethyl)-6-(methylamino)-5,6,7,8,9,10-hexahydro-9,4b-(epiminoethano)-8a,6-(epoxymethano)phenanthren-3-ol] | 3.44 ± 0.78 | 19 ± 1 |  |  |  |  |  |  |  |

From patent US9862726B2, “Opioid receptor modulating oxabicyclo[2.2.2]octane morphinans” (PURDUE PHARMA L.P., priority 2013, dated 2018)
